{
  "source": "patent US11351185B2",
  "about": "“Use of isovalerylspiramycins as anti-cancer agents to inhibit metastasis” (priority 2020, dated 2022)",
  "key": {"[1]": {"target": "T1, SELH (Sec44→Cys44) synthesized in bacteria (Homo sapiens, UniProt Q8IZQ5, U44C)", "T1 construct": "made in house", "T1 sequence (Q8IZQ5 with tags, fused parts or gaps U44C)": "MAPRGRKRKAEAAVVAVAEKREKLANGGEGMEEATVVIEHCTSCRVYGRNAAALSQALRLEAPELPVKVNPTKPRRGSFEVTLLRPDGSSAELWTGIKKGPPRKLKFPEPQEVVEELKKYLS", "experiment": "Surface plasmon resonance (SPR) assay, SELH", "format": "binding", "conditions": "25° C.", "source_text": "Next, the inventors used a thermo-stability assay to confirm SELH was targeted by ISP I in LN229 and 786-O cell lines. The principle of the assay is based on altered protein thermal stabilization/destabilization due to ligand binding in living cells. […] (FIG. 5B and FIG. 6A). To verify further the specificity of ISP I's targeting of SELH, the inventors designed a surface plasmon resonance assay to assess the interaction of ISP I with SELH synthesized in bacteria.\nThe affinities constant (KD) and kinetics (ka and kd) of ISP I binding to SELH (Sec44→Cys44) were assayed using Biacore 8K (GE Healthcare, Sweden), all at 25° C. […] Coupling conditions were determined by protein isoelectric points. […]\nTo determine the binding affinity between ISP I and SELH (Sec44→Cys44), a series of ISP I dilutions was analyzed by single-cycle kinetics. […] The ISP I at various gradient concentrations and one zero concentration (running buffer) flowed over the immobilized SELH, with 120 s for binding, followed by disassociation for 120 s, and the obtained response units (RUs) were recorded. The RU values were collected, and the binding affinity data were calculated by kinetic models (1:1 interaction) within Biacore 8K Evaluation Software. The equilibrium dissociation constant (KD) was calculated to evaluate the ability of ISP I to interact with SELH."}, "NRF2, HMOX1, NQO1": {"tested_on": "NRF2, HMOX1, NQO1", "experiment": "Real time RT-PCR of NRF2 and downstream genes", "format": "cell-based", "conditions": "for NRF2 expression (RT-PCR): 24 hours", "experimental": "NRF2 (NFE2L2) is a transcription factor that regulates redox homeostasis by binding to the regulatory regions of antioxidant response elements (ARE). […] Glioblastoma (LN229 and U251) cells and RCC (786-O and RCC4) cells were treated with ISP I and evaluated for NRF2 expression levels. […] Considering this finding, the inventors evaluated SELH's regulatory role on NRF2 by measuring NRF2 expression in cells that either overexpressed or had silenced SELH expression.\nTotal RNA was extracted using PureLink RNA Mini Kit, a product of ThermoFisher Scientific (Waltham, Mass. USA), according manufacturer's protocol. First strand cDNA was synthesized with iScript cDNA Synthesis Kit, a product of Bio-Rad (Hercules, Calif. USA). Then the inventors performed real time PCR by SsoAdvanced Universal SYBR Green Supermix kit, a product of Bio-Rad, to quantify the expression levels of genes NRF2, HMOX1, and NQO1. The primer sequences are described in Liu et al., J. Nat'l Cancer Inst. 111: 1033 (2019). Data were analyzed and normalized to 18s rRNA as the reference gene for further statistics."}, "γH2AX": {"tested_on": "γH2AX", "experiment": "γH2AX immunofluorescence staining and western blot (DNA damage)", "format": "cell-based", "conditions": "6 hours", "experimental": "It is well-established that increased levels of ROS in cells leads to oxidative DNA damage, inducing genomic instability and inhibiting cell cycle progression. Cooke et al., FASEB J. 17: 1195 (2003). Since ISP I downregulates SELH, a key regulator of ROS response elements, the inventors first assessed whether treatment with ISP I augmented DNA damage in vitro.\nWestern blotting was performed to detect the protein expression level of SELH, NRF2 and γH2AX regulated by ISP I. The cells were lysed by RIPA buffer from ThermoFisher Scientific, and the concentration was measured using DC Protein Assay, a Bio-Rad product. Equal amounts of protein of each sample were loaded for gel electrophoresis and were transferred to nitrocellulose membrane, blocked and incubated overnight at 4° C. with primary antibodies. Then the membranes were washed with TBST (3 times, 10 min each). Exposure, imaging, and data analysis were done using a KwikQuant Imager system, a product of Kindle Biosciences (Greenwich, Conn. USA). The following antibodies were used: anti-phospho-histone H2A.X (Ser139), anti-NRF2 (Cell Signaling, Danvers, Mass. USA), anti-SELH (Abcam, Cambridge, Mass. USA), anti-GAPDH (Millipore, Temecula, Calif. USA).\nFor immunofluorescence assay, cells were seeded on a 35-mm confocal dish with glass bottom and were treated with ISP I. […] Then the cells were incubated with secondary antibody conjugated with Alexa Fluor-594 (Invitrogen), followed by staining with DAPI for nuclei. Images were obtained using Zeiss LSM 780 microscopy (Carl Zeiss, Oberkochen Germany)."}, "786-O tumors": {"tested_on": "786-O tumors", "experiment": "786-O subcutaneous xenograft mouse model", "format": "in vivo, NSG mice", "conditions": "35 mg/kg i.p. daily; 18 days after treatment", "experimental": "For subcutaneous xenografts, NSG mice (6-8 weeks old) from the NCI-Frederick animal facility and Jackson Lab (Bar Harbor, Me. USA) were injected with 5×10^6 to 1×10^7 cells subcutaneously in the flank. One week later, the tumor-bearing mice were randomly assigned to different groups and made the tumor volume baseline equivalent and treated with normal saline or Zenomycin (35 mg/kg) everyday intraperitoneally. Tumors were measured using a caliper, and volume was calculated."}, "[2]": {"experiment": "Preclinical observation on doubled i.p. dose", "format": "in vivo", "conditions": "mice; one week of continuing administration", "experimental": "Furthermore, the medicament is administered in “a therapeutically effective amount,” i.e., in a single dose or in multiple, divided subdoses at a suitable interval, e.g., two, three or more subdoses over a day or another appropriate schedule, to a prescribed total amount of active, such that metastasis is inhibited in the subject. Like the dose schedule, the effective amount of medicament will depend on a variety of factors, including the age and condition of the subject, the nature and extent of the cancerous condition, any contraindications, and the pharmacokinetic and pharmacodynamic characteristics of the medicament. For example, based on an accepted guide to animal-to-human dose conversion, see Nair R. Jacob, J. Basic. Clin. Pharm."}, "[3]": {"tested_on": "in vivo cancer parameters", "conditions": "animal models; cited from earlier work"}},
  "note": "Entries after “also recorded” stand apart in the source; their conditions may differ.",
  "data": [
    {"compound": "COC1C(O)CC(=O)OC(C)CC=CC=CC(OC2CCC(N(C)C)C(C)O2)C(C)CC(CC=O)C1OC1OC(C)C(OC2CC(C)(O)C(OC(=O)CC(C)C)C(C)O2)C(N(C)C)C1O", "note": "(centres unmarked) [ISP I, 4″-isolvalerylspiramycin I]", "values": [
      {"measurement": "binding to SELH (SPR)", "setting": "[1]", "result": "tightly binds to SELH"},
      {"measurement": "expression of NRF2 downstream genes HMOX1 and NQO1", "setting": "NRF2, HMOX1, NQO1; 786-O and RCC4", "result": "increase in expression of the NRF2 downstream genes HMOX1 and NQO1; also recorded: significant increase in the downstream targets of NRF2 signaling"},
      {"measurement": "NRF2 expression (RT-PCR)", "setting": "NRF2, HMOX1, NQO1; 786-O and RCC4, 10 μg/ml", "result": "increase in NRF2 expression; also recorded: NRF2 expression was significantly upregulated"},
      {"measurement": "expression of NRF2 downstream genes HMOX1 and NQO1", "setting": "NRF2, HMOX1, NQO1; LN229 and U251", "result": "increase of the expression of NRF2 downstream genes HMOX1 and NQO1; also recorded: significant increase in the downstream targets of NRF2 signaling"},
      {"measurement": "NRF2 expression (RT-PCR)", "setting": "NRF2, HMOX1, NQO1; LN229 and U251, 10 μg/mL", "result": "increase in NRF2 expression; also recorded: NRF2 expression was significantly upregulated"},
      {"measurement": "γH2AX expression (DNA damage marker)", "setting": "γH2AX; 786-O and RCC4", "result": "increase of γH2AX expression"},
      {"measurement": "γH2AX expression (DNA damage marker)", "setting": "γH2AX; LN229 and U251", "result": "higher quantities of γH2A.X"},
      {"measurement": "γH2AX expression (DNA damage marker)", "setting": "γH2AX; LN229 and U251, listed as ISP 1", "result": "increase of γH2AX expression"},
      {"measurement": "tumor size, weight and burden", "setting": "786-O tumors", "result": "reduced 786-O tumor burden; also recorded: significantly reduced tumor size and weight"},
      {"measurement": "adverse effect on doubling of the i.p. dose", "setting": "[2]", "result": "severe diarrhea"},
      {"measurement": "in vivo cancer parameters such as tumor growth rate and relative tumor volume", "setting": "[3]", "result": "reduction"}
    ]}
  ]
}
